Measured values taken from ChEMBL document CHEMBL3301361, “Experimental in vitro DMPK and physicochemical data on a set of publicly disclosed compounds”.
In brackets after ≈: the same amount, converted by molar mass.

Legend:
physchem [1] = conditions: octan-1-ol/water
physchem [2] = conditions: pH 7.4 buffer

Structure (SMILES)	logD (physchem [1]; pH 7.4)	solubility thermodynamic (physchem [2])	logD (physchem [1]; pH 7.4, LogD7.4)
Oc1ccc(-c2ccc(C3(O)CN4CCC3CC4)cc2)cc1 (stereo unspecified)	0.95	436 µM (≈ 129 µg/mL)	–
CNC(=O)c1ccc(N2C(=S)N(c3ccc(C#N)c(C(F)(F)F)c3)C(=O)C23CCC3)cc1F	3.3	1.6 µM (≈ 0.762 µg/mL)	–
O=c1cc(CN2CCOCC2)occ1OCCCCCSc1ccnc2cc(C(F)(F)F)ccc12	–	77.6 µM (≈ 39.5 µg/mL)	–
Nc1ncc(-c2cnn(C3CCNCC3)c2)cc1-c1nc2ccccc2o1	–	2.3 µM (≈ 0.829 µg/mL)	1.85
COc1ccc(-c2cc3c(N[C@H]4CCCNC4)ncc(C(N)=O)c3s2)cc1	–	1050 µM (≈ 401 µg/mL)	1.82
N#Cc1nc(N2CCOCC2)nc(N2CCOCC2)n1	1.51	77.6 µM (≈ 21.4 µg/mL)	–
CC(=O)Nc1nc(-c2cccs2)cs1	2.77	100 µM (≈ 22.4 µg/mL)	–
CC(=O)Nc1nc(-c2ccccc2)ns1	2.8	182 µM (≈ 39.9 µg/mL)	–
Nc1nccc(/C=C/c2ccc(Cl)cc2)n1	3.5	8.7 µM (≈ 2.02 µg/mL)	–
CSc1ccc(C(=O)C(C)(C)N2CCOCC2)cc1	3.49	52.5 µM (≈ 14.7 µg/mL)	–
Cc1cc(=O)oc2cc3c(cc12)CCCN3	2.7	13.8 µM (≈ 2.97 µg/mL)	–
O=C(c1ccccc1)C1CCN(C(=O)c2cccs2)CC1	–	79.4 µM (≈ 23.8 µg/mL)	–
CCN(CC)c1ncnc2c1ncn2Cc1c(Cl)cccc1Cl	1.25	2.3 µM (≈ 0.806 µg/mL)	–
Cc1cnc(NC(=O)CSc2nnc(C)s2)s1	–	70.8 µM (≈ 20.3 µg/mL)	–
CCn1c2ccccc2c2cc(NC(C)=O)ccc21	3.5	5.6 µM (≈ 1.41 µg/mL)	–
COc1ccc(-c2cnn(C3CCS(=O)(=O)C3)c2N)cc1 (stereo unspecified)	–	81.3 µM (≈ 25 µg/mL)	–
Cc1ccnc2nc(C(=O)Nc3nccs3)nn12	0.31	339 µM (≈ 88.2 µg/mL)	–
COc1ccc(Cl)c(Nc2ncnc3cc(OCCCN4CCOCC4)c(OC)cc23)c1	–	72.4 µM (≈ 33.2 µg/mL)	–
O=C(NCc1ccncc1)c1ccc(Oc2ccc(C#C[C@]3(O)CN4CCC3CC4)cc2)cc1	2.42	302 µM (≈ 137 µg/mL)	–
Cc1ccn2c(NC(=O)c3ccccc3)c(-c3cccs3)nc2c1	2.87	1.1 µM (≈ 0.367 µg/mL)	–
O=C(NCc1ccncc1)c1ccc(Oc2ccc(C#CC3(O)CN4CCC3CC4)cc2)cc1 (stereo unspecified)	2.48	269 µM (≈ 122 µg/mL)	–
O=C(NCc1ccncc1)c1ccc(Oc2ccc(C#C[C@@]3(O)CN4CCC3CC4)cc2)cc1	2.31	107 µM (≈ 48.6 µg/mL)	–

Structure (SMILES)	logD (physchem [1]; pH 7.4)	solubility thermodynamic (physchem [2])	logD (physchem [1]; pH 7.4, LogD7.4)
CCN(C(=O)NCc1cccc(C)c1)C1CCN(CCC(c2ccccc2)c2ccccc2)CC1	–	70.8 µM (≈ 33.3 µg/mL)	–
CS(=O)(=O)c1ccc(Oc2ccc(C#C[C@]3(O)CN4CCC3CC4)cc2)cc1	1.51	457 µM (≈ 182 µg/mL)	–
O=C(NC1CCCS(=O)(=O)C1)c1ccc(Oc2ccc(C#C[C@]3(O)CN4CCC3CC4)cc2)cc1 (stereo partly specified)	1.4	162 µM (≈ 80.2 µg/mL)	–
CN(C(=O)Cc1ccc(S(C)(=O)=O)cc1F)C1CCN(Cc2ccc(C(F)(F)F)cc2)CC1	–	74.1 µM (≈ 36.1 µg/mL)	–
CO[C@@H]1CN(Cc2ccc(C(F)(F)F)cc2)CC[C@@H]1N(C)C(=O)Cc1ccc(-n2cnnn2)cc1	–	75.9 µM (≈ 37.1 µg/mL)	–
COc1ccc(-c2csc(NC(=O)c3c(C)noc3C)n2)cc1OC	3.16	2 µM (≈ 0.719 µg/mL)	–
CCCSc1ncccc1C(=O)NC1CCCCC1	–	81.3 µM (≈ 22.6 µg/mL)	–
CC(C)(C)[C@@H](C#N)NC(=O)[C@@H]1CCCC[C@H]1C(=O)N1CCc2[nH]c3ccc(F)cc3c2C1	–	74.1 µM (≈ 32.5 µg/mL)	–
N#CC1(NC(=O)[C@@H]2CCCC[C@H]2C(=O)N2CCc3[nH]c4ccc(C(F)(F)F)cc4c3C2)CC1	–	74.1 µM (≈ 34 µg/mL)	–
Cc1cc(C)cc(-c2[nH]c3sc(C(C)(C)C(=O)N4C5CCC4CC5)cc3c2C(=O)CN2CCN(CC(=O)N3CCCC3)CC2)c1	–	70.8 µM (≈ 44.6 µg/mL)	–
c1nc(N2CCCCC2)c2nc[nH]c2n1	–	501 µM (≈ 102 µg/mL)	1.84
CC12CCC(=O)C=C1CCC1C2CCC2(C)C(O)CCC12 (stereo unspecified)	3.3	40.7 µM (≈ 11.7 µg/mL)	–
CC(=O)Nc1ccc(-c2ccccc2)cc1	–	79.4 µM (≈ 16.8 µg/mL)	–
N=C(N)Nc1nc(-c2cccc(O)c2)cs1	–	79.4 µM (≈ 18.6 µg/mL)	–
Oc1cc(-c2ccccc2)nc2ccnn12	1.3	813 µM (≈ 172 µg/mL)	–
COc1cc2c(Nc3c(Cl)ccc4c3OCO4)ncnc2cc1OCCCN1CCOCC1	–	70.8 µM (≈ 33.5 µg/mL)	–
COc1cc2ncnc(Nc3cccc(Cl)c3F)c2cc1CN1CC[C@H](C(N)=O)C1	–	77.6 µM (≈ 33.4 µg/mL)	–
COc1ccc(OC)c(NC(=O)Cc2cccs2)c1	–	74.1 µM (≈ 20.6 µg/mL)	–
Cc1cc(C)cc(-c2[nH]c3sc(C(C)(C)C(=O)N4C5CCC4CC5)cc3c2C(=O)CN2CCC(C(=O)N3CCOCC3)CC2)c1	–	72.4 µM (≈ 45.7 µg/mL)	–
CC(C)CCn1c(Cn2c(=O)n(C3CC3)c(=O)c3ccccc32)nc2cc(CN)ccc21	–	70.8 µM (≈ 30.6 µg/mL)	–
COC1CCN(C(=O)C2CCN(CCc3c(-c4cc(C)cc(C)c4)[nH]c4sc(C(C)(C)C(=O)N5C6CCC5CC6)cc34)CC2)C1 (stereo unspecified)	–	70.8 µM (≈ 44.7 µg/mL)	–
